This is an account of results in patent publication US6043357A, “HIV protease inhibitors” (The University of Queensland, priority 1994, dated 2000).

The assay has as its target HIV-1 protease (Human immunodeficiency virus type 1 group M subtype B, UniProt P03369). Put plainly: biochemical. The protocol: HIV-1 protease activity was measured at 37° C. using a continuous fluorimetric assay based on the method of Toth et al., (Toth et al., 1990, Int. J. Pept. Res. 36 544-550). The substrate, 2-aminobenzoyl-threonine-isoleucine-norleucine-(p-nitro)-phenylalanine-glutamine-arginine-NH2 (Abz-NF^* -6), was synthesised by solid phase peptide synthesis (Kent et al., 1991, In: Peptides 1990: Proceedings of the Twenty-First European Peptide Symposium (Girault, E. and Andrew, D. eds.) pp 172-173, ESCOM, Leiden). Enzyme activity was measured as the increase in fluorescence intensity upon substrate hydrolysis. The change in fluorescence intensity was monitored with a Perkin Elmer LS50B luminescence spectrometer fitted with a thermostatted micro cuvette holder. Measurements were carried out using an excitation wavelength of 320 nm (bandwith 5 nm) and an emission wavelength of […] (bandwith 5 nm).
Inhibition assays were routinely carried out at pH 6.5 and μ=0.1 M using a single substrate concentration. The assay mixtures contained 50 μM Abz-NF^* -6 in 100 mM 2-(N-morpholino)ethanesulphonate buffer, containing 10% (v/v) glycerol and 50 μg/ml bovine serum albumin, in a total final volume of 400 μl. Where inhibitors had to be dissolved in dimethyl sulphoxide or other organic solvents, the final concentration of solvent in the control and inhibition assays were kept absolutely constant because of the severe inhibitory effect of some solvents on the enzyme activity (Bergman et al., 1992, 17th Ann. Lorne Conf. on Protein Struct. and Funct. Abstr.). In all assays, the reaction was initiated by the addition of 10 μl of enzyme solution.

Setting [1] is: Table 9, R isomer, read-out: IC50.
Setting [2] is: Table 4, rac (R and S isomer together), read-out: IC50.
Where [3] appears, read: Table 5, pH 6.5, 37° C., read-out: IC50.
Where [4] appears, read: Table 1, pH 6.5, 37° C., read-out: IC50.
[5] abbreviates: Table 2, pH 6.5, 37° C., read-out: IC50.

Like-named read-outs stand apart in the source and are kept apart here.

As for “Ac-LVFFIV-NH2 [Compound 86, reference compound]”, the IC50 – broadly, the concentration that inhibits the measured activity by half – under setting [1] was 5 nM.

Turning to `CC(C)NC(=O)C(Cc1ccccc1)NC[C@@H](O)[C@@H]1Cc2ccc(cc2)OCCCC(=O)N[C@@H](CC(N)=O)C(=O)N1` (stereo partly shown) [Compound 32], the IC50 under setting [2] was 42000 nM.

Turning to `CC(C)CN(CC(=O)NC(C)(C)C)C[C@H](O)[C@@H]1Cc2ccc(cc2)OCCCC(=O)N[C@@H](CC(N)=O)C(=O)N1` [Compound 27], the “protease inhibition, stated in words” value was “only μM instead of nM”. Besides, the IC50 (read-out: IC50) was found to be 1900 nM.

Regarding `CCOC(=O)CCCOc1ccc(C[C@H](NC(=O)[C@H](CC(N)=O)NC(=O)OC(C)(C)C)[C@@H](O)CN2CCC[C@H]2C(=O)NC(C)(C)C)cc1` [Compound 37], the “protease inhibition, stated in words” value is “much less active than 38 & 39”. Also, under setting [3], the IC50 is 22000 nM.

For `CC[C@H](C)[C@H](NC(=O)[C@@H]1CCCN1C[C@H](O)[C@@H]1Cc2ccc(cc2)OCCNCC(=O)N[C@@H](CC(N)=O)C(=O)N1)C(=O)N[C@H](C(N)=O)C(C)C` [Compound 9], the IC50 under setting [4] was found to be 37 nM.

For `CCOC(=O)CCCOc1ccc(C[C@H](NC(=O)[C@H](CC(N)=O)NC(C)=O)[C@@H](O)CN2CCC[C@H]2C(=O)N[C@H](C(=O)N[C@H](C(N)=O)C(C)C)[C@@H](C)CC)cc1` [Compound 15], the “protease inhibition, stated in words” value is recorded as “slightly reduced potency”. Besides, the IC50 under setting [5] is 45 nM.

In the case of `CC[C@H](C)[C@H](NC(=O)[C@@H]1CCCN1C[C@@H](O)[C@@H]1Cc2ccc(cc2)OCCCC(=O)N[C@@H](CC(N)=O)C(=O)N1)C(=O)N[C@H](C(N)=O)C(C)C` [Compound 2], 1580 nM corresponded to half-maximal inhibition (IC50).

For `CC(C)CN(CC(=O)NC(C)(C)C)C[C@@H](O)[C@@H]1Cc2ccc(cc2)OCCCC(=O)N[C@@H](CC(N)=O)C(=O)N1` [Compound 26], the “protease inhibition, stated in words” value is “only μM instead of nM”. For the setting “read-out: IC50”, the IC50 worked out at 1700 nM.

The molecule `CC(C)CNC(=O)C(Cc1ccccc1)NC[C@H](O)[C@@H]1Cc2ccc(cc2)OCCCC(=O)N[C@@H](CC(N)=O)C(=O)N1` (stereo partly shown) [Compound 35] registered an IC50 of 5200 nM.

For `CC[C@H](C)[C@@H]1NC(=O)[C@@H](NC[C@@H](O)[C@H](Cc2ccccc2)NC(=O)[C@@H](NC(=O)[C@H](CC(C)C)NC(C)=O)C(C)C)Cc2ccc(cc2)OCCCNC1=O` [Compound 87, [2(R),3(S),11'(S),8'(S)]-3-[-Acetyl-(S)-leucinyl-(S)-valinyl]amino-4-phenyl-1-[11'-[7',10'-dioxo-8'-(1-methylpropyl)-2'-oxa-6',9'-diazabicyclo[11.2.2]heptadeca-13',15',16'-triene]amino]butan-2-ol], the “protease inhibition, stated in words” value was “little effect”. The IC50 under setting [1] was found to be 2 nM.

As for `CCOC(=O)CCCOc1ccc(C[C@H](NC(=O)[C@H](CC(N)=O)NC(=O)OC(C)(C)C)[C@H](O)CN2CCC[C@H]2C(=O)NC(C)(C)C)cc1` [Compound 36], the “protease inhibition, stated in words” value was “much less active than 38 & 39”. Besides, under setting [3], the IC50 was 7050 nM.

For `CC(C)(C)NC(=O)CN(Cc1ccccc1)C[C@H](O)[C@@H]1Cc2ccc(cc2)OCCCC(=O)N[C@@H](CC(N)=O)C(=O)N1` [Compound 29], half-maximal inhibition (IC50) required 46000 nM.

With `CC(=O)Nc1ccc(S(=O)(=O)N(CCC(C)C)C[C@H](O)[C@@H]2Cc3ccc(cc3)OCCCC(=O)N[C@@H](C(C)C)C(=O)N2)cc1` [Compound 59], the “protease inhibition, stated in words” value is “potent inhibitors of HIV-1 protease”.

For `O=C1N(Cc2ccc(CO)cc2)[C@H](Cc2ccccc2)[C@H](O)[C@@H](O)[C@@H](Cc2ccccc2)N1Cc1ccc(CO)cc1` [Compound 94, reference compound], the IC50 (read-out: IC50) worked out at 1 nM.

Consider `CCOC(=O)CCCOc1ccc(C[C@H](NC(=O)[C@H](CC(N)=O)NC(C)=O)[C@H](O)CN2CCC[C@H]2C(=O)N[C@H](C(=O)N[C@H](C(N)=O)C(C)C)[C@@H](C)CC)cc1` [Compound 14], for which the “protease inhibition, stated in words” value is recorded as “slightly reduced potency”. Also, under setting [5], the IC50 was found to be 350 nM.

`CC[C@H](C)[C@@H]1NC(=O)[C@@H](NC[C@@H](O)[C@H](Cc2ccccc2)NC(=O)[C@@H](NC(=O)[C@H](CC(C)C)NC(C)=O)C(C)C)Cc2ccc(cc2)OCCCCNC1=O` [Compound 88]: the “protease inhibition, stated in words” value was “little effect”. In addition, under setting [1], the IC50 came out at 5 nM.

For the molecule `CC(C)(C)NC(=O)[C@@H]1CCCN1C[C@H](O)[C@@H]1Cc2ccc(cc2)OCCCC(=O)N[C@@H](CC(N)=O)C(=O)N1` [Compound 39], the IC50 (read-out: IC50) was determined as 490 nM.

`CC(C)N(C(=O)[C@@H]1CCCN1C[C@@H](O)[C@@H]1Cc2ccc(cc2)OCCCC(=O)N[C@@H](CC(N)=O)C(=O)N1)C(C)C` [Compound 40]: the IC50 was 106000 nM and the “protease inhibition, stated in words” value is reported as “much less active”.

For `CC(C)(C)OC(=O)N[C@@H](Cc1ccccc1)[C@@H](O)CN[C@H]1Cc2ccc(cc2)OCCCNC(=O)[C@@H](CCC(N)=O)NC1=O` [Compound 108], the “protease inhibition, stated in words” value is given as “slightly enhanced activity”.

Under “pH 6.5”, `CC[C@H](C)[C@H](NC(=O)[C@@H]1CCCN1C[C@H](O)[C@@H]1Cc2ccc(cc2)OCC(=O)N[C@@H](CCCNC(=N)N)C(=O)N[C@@H](CC(N)=O)C(=O)N1)C(=O)N[C@H](C(N)=O)C(C)C` [Compound 22] displayed an IC50 of 42 nM.

For `CC[C@H](C)[C@H](NC(=O)[C@@H]1CCCN1C[C@H](O)[C@@H]1Cc2ccc(cc2)OCC(=O)N[C@H](CCC(N)=O)C(=O)N[C@@H](CC(N)=O)C(=O)N1)C(=O)N[C@H](C(N)=O)C(C)C` [Compound 25], the IC50 amounted to 40 nM.

As for `CC[C@H](C)[C@H](NC(=O)[C@@H]1CCCN1C[C@@H](O)[C@@H]1CSSCC(NC(C)=O)C(=O)NCC(=O)N[C@@H](CC(N)=O)C(=O)N1)C(=O)N[C@H](C(N)=O)C(C)C` (stereo partly shown) [Compound 16], the “protease inhibition, stated in words” value was “activity was instead reduced”. The IC50 under setting [5] was 122000 nM.

Regarding `CC[C@H](C)[C@@H]1NC(=O)[C@@H](NC[C@@H](O)[C@H](Cc2ccccc2)NC(=O)OC(C)(C)C)Cc2ccc(cc2)OCCCNC1=O` [Compound 89, [2R, 3S, 11'S, 8'S]-3-[t-butoxycarbonyl]amino-4-phenyl-1-[11'-[7', 10'-dioxo-8'-(1-methylpropyl)-2'-oxa-6',9'-diazabicyclo[11.2.2]heptadeca-13',15',16'-triene]amino]butan-2-ol], under setting [1], the IC50 was 15 nM.

Consider `CC(C)CCN(C[C@@H](O)[C@@H]1Cc2ccc(cc2)OCCCCC(=O)N[C@@H](C(C)C)C(=O)N1)S(=O)(=O)c1ccc(N)cc1` [Compound 62], for which, for the setting “Table 7, pH 6.5, 37° C., read-out: IC50”, the IC50 was determined as 1 nM.

Consider `CC[C@H](C)[C@@H]1NC(=O)[C@@H](NC[C@@H](O)[C@@H]2Cc3ccc(cc3)OCCCC(=O)N[C@@H](C(C)C)C(=O)N2)Cc2ccc(cc2)OCCCNC1=O` [Compound 111], for which the IC50 by setting is: (Table 11, pH 6.5, 37° C., read-out: IC50) 8 nM; (read-out: IC50) 1 nM.

As for `CC[C@H](C)[C@@H]1NC(=O)[C@@H](NC[C@H](Cc2ccccc2)NC(=O)OC(C)(C)C)Cc2ccc(cc2)OCCCNC1=O` [Compound 90, [2S, 11'S, 8'S]-2-[t-butoxycarbonyl]amino-3-phenyl-1-[11'-[7',10'-dioxo-8'-(-1-methylpropyl)-2'-oxa-6',9'-diazabicyclo[11.2.2]heptadeca-13',15',16'-triene]amino]propane], the IC50 under setting [1] was determined as 150 nM.

In the case of `CC(C)(C)NC(=O)C(Cc1ccccc1)NC[C@H](O)[C@@H]1Cc2ccc(cc2)OCCCC(=O)N[C@@H](CC(N)=O)C(=O)N1` (stereo partly shown) [Compound 31], under setting [2], the IC50 was found to be 70000 nM.

As for `CC[C@H](C)[C@H](NC(=O)[C@@H]1CCCN1C[C@H](O)[C@@H]1CSSCC(NC(C)=O)C(=O)NCC(=O)N[C@@H](CC(N)=O)C(=O)N1)C(=O)N[C@H](C(N)=O)C(C)C` (stereo partly shown) [Compound 17], the “protease inhibition, stated in words” value is reported as “activity was instead reduced”. Under setting [5], the IC50 was found to be 28000 nM.

For the molecule `CC(C)C[C@@H]1NC(=O)CCCOc2ccc(cc2)C[C@@H]([C@H](O)CN2CCCC[C@H]2C(=O)NC(C)(C)C)NC1=O` [Compound 54], the “protease inhibition, stated in words” value is “slightly better than the isopropyl of 48/49”.

As for `CC[C@H](C)[C@H](NC(=O)[C@H](Cc1ccccc1)NC[C@H](O)[C@@H]1Cc2ccc(cc2)OCCCC(=O)N[C@@H](C(C)C)C(=O)N1)C(=O)N[C@H](C(N)=O)C(C)C` [Compound 47], the “protease inhibition, stated in words” value is listed as “there was not a great deal of difference”.

In the case of `CC[C@H](C)[C@H](NC(=O)[C@@H]1CCCN1C[C@H](O)[C@@H]1Cc2ccc(cc2)OCC(=O)N[C@@H](Cc2ccc(O)cc2)C(=O)N[C@@H](CC(N)=O)C(=O)N1)C(=O)N[C@H](C(N)=O)C(C)C` [Compound 18], half-maximal inhibition (IC50) required 38 nM.

Regarding `NC(=O)C[C@@H]1NC(=O)CCCOc2ccc(cc2)C[C@@H]([C@@H](O)CN2CCC[C@H]2C(N)=O)NC1=O` [Compound 7], the “protease inhibition, stated in words” value is listed as “reduced potency”. For the same molecule, the IC50 under setting [4] was 120000 nM.

In the case of `CC(C)NC(=O)C(Cc1ccccc1)NC[C@H](O)[C@@H]1Cc2ccc(cc2)OCCCC(=O)N[C@@H](CC(N)=O)C(=O)N1` (stereo partly shown) [Compound 33], the IC50 under setting [2] was 42000 nM.
